ChEMBL document CHEMBL2331276, “A novel class of 3-(phenoxy-phenyl-methyl)-pyrrolidines as potent and balanced norepinephrine and serotonin reuptake inhibitors: synthesis and structure-activity relationships” (Bioorg Med Chem Lett, 2013)

Columns and labels:
in vitro [1] = conditions: human, liver microsomes
in vitro [2] = conditions: rat, liver microsomes
[3] = Oral bioavailability in rat at 10 mg/kg; type: ADME, organism-based; conditions: in vivo
[4] = AUC in rat at 10 mg/kg, po; type: ADME, organism-based; set-up: dose 10 mg/kg, route oral; conditions: plasma

SMILES | microsomal CLint (in vitro [1]) [µL/min/mg] | microsomal CLint (in vitro [2]) [µL/min/mg] | bioavailability [3] [%] | AUC [4] [ng·h/mL]
Clc1cc(Cl)c(Cl)c(O[C@H](c2ccccc2)[C@@H]2CCNC2)c1 | < 5 | 100 | – | –
CCN(CC)C(=O)C1(c2ccccc2)CC1CN (stereo not drawn) | < 5 | < 5 | – | –
Clc1cccc(O[C@@H](c2ccccc2)[C@H]2CCNC2)c1Cl | < 5 | – | – | –
Fc1cc(F)c(F)c(O[C@H](c2ccccc2)[C@@H]2CCNC2)c1F | < 5 | 200 | – | –
Clc1ccc(Cl)c(O[C@H](c2ccccc2)[C@@H]2CCNC2)c1Cl | < 5 | 4600 | 6 | 70
Clc1ccc(Cl)c(O[C@@H](c2ccccc2)[C@H]2CCNC2)c1Cl | < 5 | 4620 | – | –
COc1cc(Cl)ccc1O[C@@H](c1ccccc1)[C@H]1CCNC1 | < 5 | 1990 | – | –
Fc1ccc(F)c(O[C@@H](c2ccccc2)[C@H]2CCNC2)c1Cl | 113 | 1660 | – | –
Fc1ccc(F)c(O[C@H](c2ccccc2)[C@@H]2CCNC2)c1Cl | 115 | 1340 | – | –
Clc1cc(Cl)cc(O[C@@H](c2ccccc2)[C@H]2CCNC2)c1 | < 5 | 4530 | – | –

Other lines, results leading:

microsomal CLint (in vitro [1]) [µL/min/mg] | microsomal CLint (in vitro [2]) [µL/min/mg] | bioavailability [3] [%] | AUC [4] [ng·h/mL] | SMILES
< 5 | – | – | – | COc1cc([N+](=O)[O-])ccc1O[C@@H](c1ccccc1)[C@H]1CCNC1
570 | 5100 | – | – | CCOc1ccccc1O[C@@H](c1ccccc1)[C@@H]1CNCCO1 [ESREBOXETINE]
< 5 | 21 | – | – | Clc1cc(Cl)cc(O[C@H](c2ccccc2)[C@@H]2CCNC2)c1
< 5 | 185 | – | – | Fc1ccc(O[C@@H](c2ccccc2)[C@H]2CCNC2)c(Cl)c1
